The text below walks through data of publication PMC11405510 (Scientific Reports, 2024).

The target of the assay is T1, Ha006a (Helicoverpa armigera, UniProt D5G3E0).
T1 sequence (D5G3E0 25-548): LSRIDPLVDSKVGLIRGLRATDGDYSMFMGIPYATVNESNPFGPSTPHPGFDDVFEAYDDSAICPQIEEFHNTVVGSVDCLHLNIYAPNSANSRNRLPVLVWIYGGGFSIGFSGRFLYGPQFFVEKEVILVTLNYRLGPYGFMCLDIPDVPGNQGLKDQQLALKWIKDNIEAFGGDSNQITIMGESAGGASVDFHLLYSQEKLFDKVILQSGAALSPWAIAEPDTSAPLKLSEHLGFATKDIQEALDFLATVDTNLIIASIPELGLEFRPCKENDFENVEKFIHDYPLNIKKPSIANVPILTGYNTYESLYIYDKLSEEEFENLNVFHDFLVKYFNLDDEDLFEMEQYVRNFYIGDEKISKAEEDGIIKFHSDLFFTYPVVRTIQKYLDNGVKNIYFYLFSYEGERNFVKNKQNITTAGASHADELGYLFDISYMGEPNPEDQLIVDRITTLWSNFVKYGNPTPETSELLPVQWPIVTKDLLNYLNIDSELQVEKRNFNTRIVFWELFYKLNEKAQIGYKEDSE
Description: Differential scanning calorimetry of Ha006a-ligand complexes. The note with it: DSC; for Tm1 (°C) ± SE: first thermal transition, 50 μM protein, non-two-state fit; for Tm2 (°C) ± SE: second thermal transition; for Tm3 (°C) ± SE: third thermal transition. The assay is classed as binding. For orientation: DSC measures the heat that a sample takes up or gives off during a temperature scan.

Regarding `COc1cc(OC)c2c(=O)cc(-c3ccc(OC)c(OC)c3)oc2c1` [3′,4′,5,7-Tetramethoxyflavone], the “Tm1 (°C) ± SE” value was “Tm1 51.52 ± 0.25 °C”, the “Tm2 (°C) ± SE” value is “Tm2 79.01 ± 0.98 °C” and the “Tm3 (°C) ± SE” value was “Tm3 91.76 ± 0.43 °C”. Also, under “first transition (Tm1)”, the “ΔH (molar heat enthalpy)” value was 584000 kcal/mol, the “ΔHv (van't Hoff enthalpy)” value came to 34000 kcal/mol and the ΔHv/ΔH was 0.06. Also, under “second transition (Tm2)”, the “ΔH (molar heat enthalpy)” value turned out to be 957000 kcal/mol, the “ΔHv (van't Hoff enthalpy)” value came to 35300 kcal/mol and the ΔHv/ΔH turned out to be 0.04. Besides, for the setting “third transition (Tm3)”, the “ΔH (molar heat enthalpy)” value was 358000 kcal/mol, the “ΔHv (van't Hoff enthalpy)” value stood at 58800 kcal/mol and the ΔHv/ΔH is 0.16.

On to `O=C(/C=C/C=C/c1ccc2c(c1)OCO2)N1CCCCC1` [Piperine], for which the “Tm1 (°C) ± SE” value was “Tm1 51.30 ± 0.32 °C”, the “Tm2 (°C) ± SE” value is “Tm2 65.47 ± 0.33 °C” and the “Tm3 (°C) ± SE” value is “Tm3 80.80 ± 0.36 °C”. For the setting “first transition (Tm1)”, the “ΔH (molar heat enthalpy)” value came to 218000 kcal/mol, the “ΔHv (van't Hoff enthalpy)” value is 43300 kcal/mol and the ΔHv/ΔH was 0.20. For the same compound, under “second transition (Tm2)”, the “ΔH (molar heat enthalpy)” value was found to be 209000 kcal/mol, the “ΔHv (van't Hoff enthalpy)” value came out at 40800 kcal/mol and the ΔHv/ΔH came to 0.20. Also, under “third transition (Tm3)”, the “ΔH (molar heat enthalpy)” value came to 44600 kcal/mol, the “ΔHv (van't Hoff enthalpy)” value was found to be 40900 kcal/mol and the ΔHv/ΔH turned out to be 0.92.

As for `CN1CCc2cc3c(cc2C(=O)Cc2ccc4c(c2C1)OCO4)OCO3` [Protopine], the “Tm1 (°C) ± SE” value was “Tm1 49.93 ± 0.55 °C”, the “Tm2 (°C) ± SE” value is “Tm2 66.76 ± 0.33 °C” and the “Tm3 (°C) ± SE” value was “Tm3 86.29 ± 0.67 °C”. In addition, under “first transition (Tm1)”, the “ΔH (molar heat enthalpy)” value came to 630000 kcal/mol, the “ΔHv (van't Hoff enthalpy)” value worked out at 43200 kcal/mol and the ΔHv/ΔH is 0.07. Moreover, where the note is “second transition (Tm2)”, the “ΔH (molar heat enthalpy)” value stood at 1.87e+06 kcal/mol, the “ΔHv (van't Hoff enthalpy)” value was 31500 kcal/mol and the ΔHv/ΔH is reported as 0.02. In addition, for the setting “third transition (Tm3)”, the “ΔH (molar heat enthalpy)” value was found to be 783000 kcal/mol, the “ΔHv (van't Hoff enthalpy)” value amounted to 40100 kcal/mol and the ΔHv/ΔH came out at 0.05.

With `O=P(Oc1ccccc1)(Oc1ccccc1)Oc1ccccc1` [Triphenyl phosphate, reference compound], the “Tm1 (°C) ± SE” value was “Tm1 51.32 ± 1.70 °C”, the “Tm2 (°C) ± SE” value was “Tm2 67.66 ± 0.26 °C” and the “Tm3 (°C) ± SE” value is “Tm3 78.21 ± 0.44 °C”. Further, under “first transition (Tm1)”, the “ΔH (molar heat enthalpy)” value stood at 457000 kcal/mol, the “ΔHv (van't Hoff enthalpy)” value stood at 35900 kcal/mol and the ΔHv/ΔH amounted to 0.08. Besides, under “second transition (Tm2)”, the “ΔH (molar heat enthalpy)” value came to 1.31e+06 kcal/mol, the “ΔHv (van't Hoff enthalpy)” value is 66800 kcal/mol and the ΔHv/ΔH was determined as 0.05. Besides, for the setting “third transition (Tm3)”, the “ΔH (molar heat enthalpy)” value is 472000 kcal/mol, the “ΔHv (van't Hoff enthalpy)” value came out at 89500 kcal/mol and the ΔHv/ΔH is 0.19.
